Results as given in US20250304644A1, “PEPTIDES TRIPLE AGONISTS OF GIP, GLP-1 AND GLP-2” (BAINAN BIOTECH APS, priority 2021, published 2025).
“And” between values parts separate entries of the source, which are not always exact repeats. Identical values can stand only once. Like-named read-outs stand apart in the source and are kept apart here. *1 amine or outer side, *2 acyl side, *3 side chain or, on linkers, in order; H or OH if unused. Where a SMILES comes first, the peptide text is derived from it. Where no end group is shown, it is not given here. Side-chain parts run from the residue outwards. [ ]: non-standard residue; d: D form. The star is where a group is joined. C18 diacid = O=C(O)CCCCCCCCCCCCCCCCC(=O)*; γGlu = O=C(O)[C@H](CCC(=O)[*:2])N[*:1]; AEEA = NCCOCCOCC(=O)O; Aib = CC(C)(N)C(=O)O

Assays:
Format in all cases: cell-based
[1] = target: T1, human GLP-1R (Homo sapiens, UniProt P43220); assay: cAMP assay (HitHunter) in transiently transfected COS-7 cells expressing human GLP-1R; settings: for EC50: cAMP, COS-7 cells, human GLP-1R
T1 construct: host or cells: COS-7

[2] = target: T2, human SNP-tagged GLP-2R (Homo sapiens, UniProt O95838); assay: Receptor internalization assay, HEK293A cells expressing human SNAP-tagged GLP-2R; settings: for Absolute hGLP-2R internalization (AUC): AUC of sigmoid curves up to 1 μM, 60 minutes at 37° C.; for Relative hGLP-2R internalization (%): relative to native ligand = 100; for GLP-2R internalization (in words): compared to native GLP-2
T2 construct: expressed in transfected cells; host or cells: HEK293A
T2 sequence (O95838 1-553): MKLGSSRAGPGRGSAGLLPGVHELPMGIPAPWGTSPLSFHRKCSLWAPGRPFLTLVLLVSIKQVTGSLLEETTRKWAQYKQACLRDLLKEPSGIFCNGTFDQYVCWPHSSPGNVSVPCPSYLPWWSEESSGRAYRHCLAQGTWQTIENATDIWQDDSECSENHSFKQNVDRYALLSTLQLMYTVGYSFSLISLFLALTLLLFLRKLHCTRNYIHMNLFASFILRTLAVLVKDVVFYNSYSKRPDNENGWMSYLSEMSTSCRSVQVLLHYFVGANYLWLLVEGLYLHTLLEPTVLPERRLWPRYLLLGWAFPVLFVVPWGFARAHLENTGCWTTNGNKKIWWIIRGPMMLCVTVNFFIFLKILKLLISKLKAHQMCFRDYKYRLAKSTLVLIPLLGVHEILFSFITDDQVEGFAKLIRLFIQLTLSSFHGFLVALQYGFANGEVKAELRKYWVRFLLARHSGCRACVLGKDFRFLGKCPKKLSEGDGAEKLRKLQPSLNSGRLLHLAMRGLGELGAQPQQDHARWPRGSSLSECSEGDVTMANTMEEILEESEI

[3] = target: T3, human GIPR (Homo sapiens, UniProt P48546); assay: cAMP assay (HitHunter) in transiently transfected COS-7 cells expressing human GIPR; settings: for EC50: cAMP, COS-7 cells, human GIPR
T3 construct: host or cells: COS-7
T3 sequence (P48546 22-466): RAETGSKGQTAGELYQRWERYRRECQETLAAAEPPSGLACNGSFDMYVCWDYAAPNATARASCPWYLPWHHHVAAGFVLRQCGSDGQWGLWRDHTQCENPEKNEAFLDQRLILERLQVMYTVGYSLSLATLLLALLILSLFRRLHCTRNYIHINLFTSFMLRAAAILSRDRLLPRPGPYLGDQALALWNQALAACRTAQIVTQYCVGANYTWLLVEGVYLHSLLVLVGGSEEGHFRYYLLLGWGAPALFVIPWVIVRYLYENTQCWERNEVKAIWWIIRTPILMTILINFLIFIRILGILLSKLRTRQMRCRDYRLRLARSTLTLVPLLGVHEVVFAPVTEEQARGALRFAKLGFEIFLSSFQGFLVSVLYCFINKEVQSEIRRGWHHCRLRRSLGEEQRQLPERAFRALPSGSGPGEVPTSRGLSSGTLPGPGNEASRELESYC

[4] = target: T4, human GLP-2R (Homo sapiens, UniProt O95838); assay: cAMP assay (HitHunter) in transiently transfected COS-7 cells expressing human GLP-2R; settings: for EC50: cAMP, COS-7 cells, human GLP-2R
T4 construct: host or cells: COS-7
T4 sequence (O95838 1-553): T2 sequence (O95838 1-553)

[5] = target: human glucagon receptor (GCGR) (Homo sapiens, UniProt P47871); assay: Gs activation measured as cAMP accumulation on human glucagon receptor (FIG. 1 radar plot); settings: read-out: −p Log EC50 on human glucagon receptor (GCGR) (converted)
Description: Here, the compounds 20, 21, 22, 28, 30, 31,32, 33, 34, 35 are shown in terms of their potencies in Gs activation, measured as CAMP accumulation, depicted in a radar plot. The numbers refer to −p Log EC50 values. […] The outer rings correspond to higher potencies, the inner rings correspond to lower potencies.

[6] = target: T5, human SNAP-tagged GIPR (Homo sapiens, UniProt P48546); assay: Receptor internalization assay, HEK293A cells expressing human SNAP-tagged GIPR; settings: for GIPR internalization (in words): compared to native GIP
T5 construct: host or cells: HEK293A
T5 sequence (P48546 22-466): T3 sequence (P48546 22-466)

[7] = target: T6, human SNAP-tagged GLP-1R (Homo sapiens, UniProt P43220); assay: Receptor internalization assay, HEK293A cells expressing human SNAP-tagged GLP-1R; settings: for Absolute hGLP-1R internalization (AUC): AUC of sigmoid curves up to 1 μM, 60 minutes at 37° C.; for Relative hGLP-1R internalization (%): relative to hGLP-1 = 100; for GLP-1R internalization (in words): compared to native GLP-1
T6 construct: expressed in transfected cells; host or cells: HEK293A

[8] = COS-7, normalized to highest concentration of the endogenous ligand, read-out: Efficacy GLP-1R (Emax)
[9] = COS-7, normalized to highest concentration of the endogenous ligand, read-out: Efficacy GIPR (Emax)
[10] = COS-7, normalized to highest concentration of the endogenous ligand, read-out: Efficacy GLP-2R (Emax)
[11] = AUC of sigmoid curves up to 1 μM, 60 minutes at 37° C.
[12] = COS-7, read-out: Efficacy GLP-1R (Emax)
[13] = COS-7, read-out: Efficacy GIPR (Emax)
[14] = COS-7, read-out: Efficacy GLP-2R (Emax)
[15] = read-out: logEC50 GLP-1R (converted)

Chain of human glucagon receptor (GCGR) (P47871 26-477): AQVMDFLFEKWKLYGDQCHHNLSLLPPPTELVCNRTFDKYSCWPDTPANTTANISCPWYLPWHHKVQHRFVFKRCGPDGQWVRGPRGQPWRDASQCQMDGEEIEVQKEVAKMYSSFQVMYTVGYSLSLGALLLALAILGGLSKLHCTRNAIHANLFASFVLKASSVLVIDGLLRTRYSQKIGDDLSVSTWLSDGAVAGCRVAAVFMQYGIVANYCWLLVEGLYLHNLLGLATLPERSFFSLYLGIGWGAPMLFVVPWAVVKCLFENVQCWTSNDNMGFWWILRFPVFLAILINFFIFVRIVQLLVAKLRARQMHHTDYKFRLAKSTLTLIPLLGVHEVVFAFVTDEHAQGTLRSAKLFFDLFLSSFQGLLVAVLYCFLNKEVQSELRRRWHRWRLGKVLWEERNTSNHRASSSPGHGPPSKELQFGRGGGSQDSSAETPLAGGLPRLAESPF
T6 sequence (P43220 24-463): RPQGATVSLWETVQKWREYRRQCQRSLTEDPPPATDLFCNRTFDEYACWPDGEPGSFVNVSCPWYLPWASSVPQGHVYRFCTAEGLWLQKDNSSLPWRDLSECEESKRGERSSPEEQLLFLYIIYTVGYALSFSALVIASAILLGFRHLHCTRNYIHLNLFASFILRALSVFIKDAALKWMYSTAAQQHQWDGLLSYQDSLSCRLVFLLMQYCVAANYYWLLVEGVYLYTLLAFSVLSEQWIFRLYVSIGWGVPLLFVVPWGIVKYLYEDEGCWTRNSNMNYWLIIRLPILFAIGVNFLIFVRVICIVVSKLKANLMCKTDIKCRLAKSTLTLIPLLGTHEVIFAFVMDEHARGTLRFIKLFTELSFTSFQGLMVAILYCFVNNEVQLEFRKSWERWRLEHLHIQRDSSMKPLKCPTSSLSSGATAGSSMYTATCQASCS
T1 sequence (P43220 24-463): as above

Compound	Emax [1, 8]	Absolute hGLP-2R internalization (AUC) [2]	Relative hGLP-2R internalization (%) [2]	Emax [3, 9]	Emax [4, 10]	EC50 ([4]; read-out: EC50 (nM) GLP-2R)	EC50 [5]	Absolute hGIPR internalization (AUC) [6, 11]	Relative hGIPR internalization (%) ([6]; relative to hGIP 1-42 = 100)	Absolute hGLP-1R internalization (AUC) [7]	Relative hGLP-1R internalization (%) [7]	Emax [1, 12]	Emax [3, 13]	Emax [4, 14]	Absolute hGIPR internalization (AUC) [6]	Relative hGIPR internalization (%) [6]	GLP-2R internalization (in words) [2]	EC50 [3]	GIPR internalization (in words) [6]	GLP-1R internalization (in words) [7]	also measured
CC[C@H](C)[C@H](NC(=O)[C@H](Cc1ccccc1)NC(=O)[C@H](CC(=O)O)NC(=O)[C@H](CCCNC(=N)N)NC(=O)[C@H](C)NC(=O)[C@H](C)NC(=O)[C@H](CCCCNC(=O)COCCOCCNC(=O)COCCOCCNC(=O)CC[C@H](NC(=O)CCCCCCCCCCCCCCCCC(=O)O)C(=O)O)NC(=O)[C@H](CC(N)=O)NC(=O)[C@H](CC(=O)O)NC(=O)[C@H](CC(C)C)NC(=O)[C@@H](NC(=O)[C@@H](NC(=O)[C@H](CO)NC(=O)[C@H](Cc1ccc(O)cc1)NC(=O)[C@H](CC(=O)O)NC(=O)[C@H](CO)NC(=O)[C@@H](NC(=O)[C@H](Cc1ccccc1)NC(=O)[C@@H](NC(=O)CNC(=O)[C@H](CC(=O)O)NC(=O)[C@H](C)NC(=O)[C@@H](N)Cc1c[nH]cn1)[C@@H](C)O)[C@@H](C)CC)[C@@H](C)O)[C@@H](C)CC)C(=O)N[C@@H](CC(N)=O)C(=O)N[C@@H](Cc1c[nH]c2ccccc12)C(=O)N[C@@H](CC(C)C)C(=O)N[C@H](C(=O)N[C@@H](CCC(N)=O)C(=O)N[C@H](C(=O)N[C@@H](CCCCN)C(=O)NCC(=O)N[C@@H](CCCCN)C(=O)N[C@@H](CCCCN)C(=O)O)[C@@H](C)O)[C@@H](C)CC [Compound 32] (H-HADGTFISDYSTILDNK([AEEA-AEEA-γGlu-C18 diacid])AARDFINWLIQTKGKK-OH)	84%	15.0	30.8%	80%	77%	3.2 nM	> 100 nM	6.5	18%	7.0	8.3%										loss in GIP potency in cAMP ([3]; fatty acid in position 17 compared to position 16 (Compound 30)): > 10 fold
CC[C@H](C)[C@H](NC(=O)[C@H](Cc1ccccc1)NC(=O)[C@H](CC(=O)O)NC(=O)[C@H](CCCNC(=N)N)NC(=O)[C@H](C)NC(=O)[C@H](C)NC(=O)[C@H](CC(C)C)NC(=O)[C@H](CC(N)=O)NC(=O)[C@H](CC(=O)O)NC(=O)[C@H](CC(C)C)NC(=O)[C@@H](NC(=O)[C@@H](NC(=O)[C@H](CO)NC(=O)[C@H](Cc1ccc(O)cc1)NC(=O)[C@H](CC(=O)O)NC(=O)[C@H](CO)NC(=O)[C@@H](NC(=O)[C@H](Cc1ccccc1)NC(=O)[C@@H](NC(=O)CNC(=O)[C@H](CC(=O)O)NC(=O)[C@H](C)NC(=O)[C@@H](N)Cc1c[nH]cn1)[C@@H](C)O)[C@@H](C)CC)[C@@H](C)O)[C@@H](C)CC)C(=O)N[C@@H](CC(N)=O)C(=O)N[C@@H](Cc1c[nH]c2ccccc12)C(=O)N[C@@H](CC(C)C)C(=O)N[C@H](C(=O)N[C@@H](CCC(N)=O)C(=O)N[C@H](C(=O)N[C@@H](CCCCN)C(=O)NCC(=O)N[C@@H](CCCCN)C(=O)N[C@@H](CCCCNC(=O)COCCOCCNC(=O)COCCOCCNC(=O)CC[C@H](NC(=O)CCCCCCCCCCCCCCCCC(=O)O)C(=O)O)C(=O)O)[C@@H](C)O)[C@@H](C)CC [Compound 33]		6.4	13.2%				> 100 nM			6.4	7.7%	99%	88%	90%	15.8	43%					
CC[C@H](C)[C@H](NC(=O)[C@H](Cc1ccccc1)NC(=O)[C@H](CC(=O)O)NC(=O)[C@H](CCCNC(=N)N)NC(=O)[C@H](C)NC(=O)[C@H](C)NC(=O)[C@H](CC(C)C)NC(=O)[C@H](CC(N)=O)NC(=O)[C@H](CC(=O)O)NC(=O)[C@H](CC(C)C)NC(=O)C(C)(C)NC(=O)[C@@H](NC(=O)[C@H](CO)NC(=O)[C@H](Cc1ccc(O)cc1)NC(=O)[C@H](CC(=O)O)NC(=O)[C@H](CO)NC(=O)[C@@H](NC(=O)[C@H](Cc1ccccc1)NC(=O)[C@@H](NC(=O)CNC(=O)[C@H](CC(=O)O)NC(=O)[C@H](C)NC(=O)[C@@H](N)Cc1c[nH]cn1)[C@@H](C)O)[C@@H](C)CC)[C@@H](C)O)C(=O)N[C@@H](CC(N)=O)C(=O)N[C@@H](Cc1c[nH]c2ccccc12)C(=O)N[C@@H](CC(C)C)C(=O)N[C@H](C(=O)N[C@@H](CCC(N)=O)C(=O)N[C@H](C(=O)N[C@@H](CCCCN)C(=O)NCC(=O)N[C@@H](CCCCN)C(=O)N[C@@H](CCCCN)C(=O)N[C@@H](CCCCNC(=O)COCCOCCNC(=O)COCCOCCNC(=O)CC[C@H](NC(=O)CCCCCCCCCCCCCCCCC(=O)O)C(=O)O)C(=O)O)[C@@H](C)O)[C@@H](C)CC [Compound 35]		7.6	15.7%				> 100 nM			2.0	2.4%	92%	99%	93%	14.3	39% and 38%					
HADGTFTSDYSIILDK([AEEA-AEEA-γGlu-C18 diacid])LAARDFINWLIQTKGKKNDWKHNITQ-OH [Compound 20]	112%	39.4	81.0%	112%	100%		> 100 nM	14.2	38%	91.8	109.14%						comparable to native GLP-1 and GLP-2	0.126 nM	reduced internalization compared to native GIP	comparable to native GLP-1 and GLP-2	EC50 [1, 15]: 0.0398 nM; EC50 ([4]; read-out: logEC50 GLP-2R (converted)): 0.316 nM
HADGTFTSDYSTILDK([AEEA-AEEA-γGlu-C18 diacid])LAARDFINWLIQTKGKKNDWKHNITQ-OH [Compound 21]	122%	36.3	74.6%	104%	104%	0.6 nM	> 100 nM	10.2	28%	94.7	112.59%						comparable to native GLP-1 and GLP-2	0.398 nM	reduced internalization compared to native GIP	comparable to native GLP-1 and GLP-2	EC50 ([1]; read-out: EC50 (nM) GLP-1R): 0.05 nM
HADGTFTSDYST[Aib]LDK([AEEA-AEEA-γGlu-C18 diacid])LAARDFINWLIQTKGKKNDWKHNITQ-OH [Compound 22]	116%	38.0	78.2%	93%	93%	0.6 nM	> 100 nM	7.0	19%	78.81	93.70%						comparable to native GLP-1 and GLP-2	1.12 nM	reduced internalization compared to native GIP	comparable to native GLP-1 and GLP-2	EC50 ([1]; read-out: EC50 (nM) GLP-1R): 0.04 nM; EC50 [1, 15]: 0.0316 nM
